From PubChem BioAssay AID179 (DTP/NCI, 2004)
pEC50, pIC50: −log10 of the molar value. Active and inactive are the calls of the source.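 The calls were made as follows: active = compounds giving half or more protection of infected cells from virus-caused growth loss, again on retest; inactive = the rest.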

System: CEM cells HIV-1 protection, formazan growth assay
Test: NCI AIDS Antiviral Assay
Details: for pIC50: measured here: growth of uninfected CEM cells
Summary of the method: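 Steps: treat uninfected and HIV-1-infected human CEM cells at five drug levels; quantify growth by soluble formazan; retest any compound reaching 50% protection; classify actives from the retest.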

CCN(CC)C(=S)SS(=O)(=O)c1ccccc1C(=O)O
pEC50: < 3.70 | pIC50: 3.95

O=[N+]([O-])C(=C(Cl)Cl)/C(Cl)=C(\Cl)Br
outcome: inactive

O=C(O)c1cc(=O)[nH]c(=O)[nH]1
outcome: inactive

O=C1C(O)=C(c2ccc(Br)cc2)C(=O)C(O)=C1c1ccc(Br)cc1
pEC50: < 4.23 | pIC50: 4.65

C1CN(SSN2CCSCC2)CCS1
pEC50: < 5.27 | pIC50: < 5.27

O=C1OCC(O)C(C2OC(=O)c3cc(O)c(O)c(O)c3-c3c(O)c(O)c(O)c4c3C(=O)OC2C4c2c(O)cc(O)c3c2OC(c2ccc(O)c(O)c2)C(O)C3)OC(=O)c2cc(O)c(O)c(O)c2-c2c1cc(O)c(O)c2O (stereo not given)
pEC50: < 4.65 | pIC50: < 4.65

CCC(=O)COc1ccc(NC(NC(=O)C(C(F)(F)F)C(F)(F)F)(C(F)(F)F)C(F)(F)F)cc1
outcome: inactive

Nc1ccc(C(=O)Nn2c(-c3ccccc3)nc3ccccc3c2=O)cc1
pEC50: < 3.70 | pIC50: < 3.70

CCOP(=O)(OCC)C(Nc1cccc(F)c1)c1ccc(N(C)C)cc1 (stereo not given)
pEC50: < 3.70 | pIC50: 4.01

CCCNC(=S)/N=C/c1c(O)c2ccccc2[nH]c1=O
pEC50: < 3.70 | pIC50: < 3.70

Cc1ccc(S(=O)(=O)N/C(=C\C=C\c2ccccc2)C(=O)C(C)(C)C)cc1
pEC50: 4.41 | pIC50: 4.24

CCC1Sc2cc(OC)cc3c2N(CCN3)C1=O (stereo not given)
pEC50: < 3.70 | pIC50: 4.24

CC1=C(C)C(=O)C(C2=C(C3=CC(=O)C(C)=C(C)C3=O)C(=O)c3ccccc3C2=O)=CC1=O
pEC50: < 3.70 | pIC50: 5.25

COC(=O)CC(C(C(C)=O)C(=O)OCc1ccccc1)N1C(=O)OC(c2ccccc2)C1c1ccccc1 (stereo not given)
pEC50: < 4.08 | pIC50: < 4.08

CP1(=S)CCC2=C1c1ccc(O)cc1CC2 (stereo not given)
outcome: inactive

COC(=O)C1CC=C(SC(=O)c2ccccc2)N1C(=O)c1ccccc1 (stereo not given)
pEC50: < 3.70 | pIC50: < 3.70

COc1ccc(C2SCC(=O)N2NC(=O)c2ccc(NC(C)=O)cc2)cc1 (stereo not given)
pEC50: < 4.45 | pIC50: < 4.45

O=C1NC2(CCN(Cc3ccccc3)CC2)Oc2ccccc21
pEC50: < 3.70 | pIC50: < 3.70

O=C(O)C1CCC(c2ccc(Oc3ccccc3)cc2)=N1 (stereo not given)
pEC50: < 3.70 | pIC50: < 3.70

O=C(O)[C@@H]1CSC(c2ccc(Cl)cc2)N1 (stereo not given in full)
pEC50: < 3.70 | pIC50: < 3.70

Cc1cc(N)c(C)c2c1[nH]c1ccc(O)cc12
pEC50: < 3.52 | pIC50: 4.54

CC(/C=C/c1ccccc1)=N/NS(=O)(=O)c1ccc(N)cc1
pEC50: < 3.94 | pIC50: < 3.94

O=c1[nH][nH]c(=O)c2ncccc12
pEC50: < 3.70 | pIC50: < 3.70

CCC1(CC)O[C@H]([C@@H](O)CCc2ccccc2O)[C@@H]([C@@H](O)CCc2ccccc2O)O1
pEC50: < 3.70 | pIC50: 4.48

Nc1ccc2nc3n(c2c1)C(c1c(F)cccc1F)SC3 (stereo not given)
pEC50: < 3.70 | pIC50: 3.90

CCOC(=O)C(NC(=O)CC)(Nc1ccc(F)cc1F)C(F)(F)F (stereo not given)
pEC50: < 3.70 | pIC50: < 3.70

O=C(NCCO)c1c(CN(CCO)CCO)n([O-])c2ccccc2[n+]1=O
pEC50: < 3.31 | pIC50: 3.34

O=c1cc2ccccc2nn1Cc1cccc(Cl)c1
pEC50: < 3.94 | pIC50: 3.99

O=C1CNC(=O)c2c(ncn2C2OC(CO)CC2O)N1 (stereo not given)
pEC50: < 3.52 | pIC50: < 3.52

CCCCCCCNC(C)(C)C(SSSC(c1ccc(Cl)cc1)C(C)(C)NCCCCCCC)c1ccc(Cl)cc1 (stereo not given)
pEC50: < 4.00 | pIC50: < 4.00

Cc1nc(Cl)nc2c1C(=O)Nc1ccccc1N2
pEC50: < 4.28 | pIC50: 4.57

Cc1cccc(N=N/C(=N\NC(=O)c2cc(Cl)ccc2O)c2ccc(N(CCC#N)CCC#N)cc2C)c1
pEC50: < 3.70 | pIC50: 4.51

Cc1occc1C(=S)Nc1ccc(Cl)c(C(=O)OC2CCCC2)c1
pEC50: 8.53 | pIC50: 4.78

COC(=O)Cc1c([C@H]2[C@H](CC(=O)OC)c3ccccc3N2C(C)=O)[nH]c2ccccc12
pEC50: < 3.70 | pIC50: 4.01

CC1=NN(C(=O)CC(=O)Nc2cccc(C)c2)C(=O)C1N=Nc1ccc(S(=O)(=O)CCOS(=O)(=O)O)cc1 (stereo not given)
pEC50: < 5.70 | pIC50: 5.90

Cc1cc(C)nc(NS(=O)(=O)c2ccc(NC(=O)c3cccc4c(Nc5ccc(S(=O)(=O)Nc6nc(C)cc(C)n6)cc5)c5ccc(Cl)cc5nc34)cc2)n1
pEC50: < 4.07 | pIC50: < 4.07

Cc1cc(C)n(-c2nc(C)c(CCO)c(=O)[nH]2)n1
outcome: inactive

COc1cc(NCC(C#N)C#N)ccc1N=Nc1ccc(Cl)cc1
pEC50: < 4.67 | pIC50: < 4.67

O=C(CCCl)N1CCN(C(=O)CCCl)c2c1c1ccccc1c1ccccc21
pEC50: < 3.70 | pIC50: 5.52

NC(=O)NC1C(C(N)=O)N(Cc2ccccc2)C(=O)N1Cc1ccccc1 (stereo not given)
pEC50: < 4.01 | pIC50: < 4.01

COCn1cnc2c(=O)nc(SC)n(-c3ccccc3)c21
pEC50: < 3.70 | pIC50: < 3.70

Cc1ccc(-n2cnc3c(N/N=C4\SCC(=O)N4c4ccccc4)ncnc32)cc1
outcome: inactive

CN(C(=O)c1cccs1)C(=S)N1CCN(c2ccccc2)CC1
pEC50: < 4.26 | pIC50: 4.51

OC1NC2CC3NC(O)C(O)NC3CC2NC1O (stereo not given)
pEC50: < 4.00 | pIC50: < 4.00

Cn1c(=O)c2nc3c(=O)n(C)c(=O)n(CC(N)=O)c3nc2n(C)c1=O
pEC50: < 3.70 | pIC50: < 3.70

Nc1nc(=S)ss1
pEC50: < 3.70 | pIC50: 3.81

CCCCCC(/C=C/c1ncccc1OCCCCCC(=O)O)=N\NC1=NCCN1
pEC50: < 4.35 | pIC50: < 4.35

COc1ccc(O)c2c1C(=O)CCCC2=O
outcome: inactive

CC(=O)Nc1ccc(C(=O)NN2C(=O)CSC2c2ccc(O)cc2)cc1 (stereo not given)
pEC50: < 4.44 | pIC50: < 4.44

COC(=O)/C=C/c1ccc(OP(=O)(O)O)c(OC)c1
pEC50: < 3.70 | pIC50: < 3.70

O=c1ccc2c(-c3ccccc3S(=O)(=O)O)c3ccc(O)c(O)c3oc-2c1O
pEC50: 5.62 | pIC50: < 3.70

Clc1ccc(C(Cc2ccccc2)c2c(Cl)nc(N3CCNCC3)nc2Cl)cc1 (stereo not given)
pEC50: < 3.70 | pIC50: 5.04

CC1CC(=O)Nc2ccccc2N1 (stereo not given)
pEC50: < 3.70 | pIC50: < 3.70

CN(C)c1nc(N(C)C)nc(N(C)CN(C)c2ccccc2)n1
pEC50: < 4.00 | pIC50: < 4.00

O=C1C=C(N2CC2)C(=O)C=C1N1CC1
pEC50: < 6.70 | pIC50: 7.85

O=C(c1ccccc1)C1N(c2ccccc2)CCN1c1ccccc1
pEC50: < 3.70 | pIC50: 4.66

COC[C@@]12CCC(OC)C34[C@@H]5C[C@@]6(O)C(OC(=O)c7ccccc7)[C@@H]5[C@](OC(C)=O)(C[C@@H]6OC)[C@@H](C(OC)[C@@H]31)[C@@H]4N(C=O)C2 (stereo not given in full)
outcome: inactive

O=C(O)c1c(Br)c(Br)c(Br)c(Br)c1-c1c2ccc(=O)cc-2oc2cc(O)ccc12
pEC50: < 3.70 | pIC50: 4.55

COc1cccc(C2=CCCCCC2)c1OC
pEC50: < 3.70 | pIC50: 4.10

O=c1ccn(C2OC(CN(O)CCC3C(CO)OC(n4ccc(=O)[nH]c4=O)C3O)C(O)C2O)c(=O)[nH]1 (stereo not given)
pEC50: < 3.70 | pIC50: 3.90

N#C/C(=C\c1cccc2ccccc12)c1ccc(Cl)cc1
pEC50: < 3.70 | pIC50: 4.02

N#CC(C#N)=C1CCC2C(=C(C#N)C#N)CCC12 (stereo not given)
outcome: inactive

COC1(CC[C@H](C)COC2OC(CO)C(O)C(O)C2O)O[C@H]2C[C@H]3[C@@H]4CC=C5C[C@@H](OC6OC(CO)C(OC7OC(C)C(O)C(O)C7O)C(O)C6OC6OC(C)C(O)C(O)C6O)CC[C@]5(C)[C@H]4CC[C@]3(C)[C@H]2[C@@H]1C (stereo not given in full)
pEC50: < 3.70 | pIC50: 5.80

OC1(CN2CCOCC2)N=C(c2ccccc2)c2ccsc2-n2cccc21 (stereo not given)
pEC50: < 3.70 | pIC50: < 3.70

O=C(O)CN(c1cccc(Cl)c1)S(=O)(=O)c1ccccc1
outcome: inactive

Cc1ccc(NC(=O)CC/C(CC(=O)C(C)(C)C)=N/NC(=O)C(N)=O)cc1C
pEC50: < 3.49 | pIC50: < 3.49

Cc1ccc(/C=C2\NC(=S)N(CN3CCCCC3)C2=O)cc1
pEC50: < 3.70 | pIC50: 4.53

CC[CH2][Sn]([CH2]CC)([O]C(=O)c1cccnc1SC)[O][Sn]([CH2]CC)([CH2]CC)[O]C(=O)c1cccnc1SC
pEC50: < 4.61 | pIC50: 5.25

Nc1ccc(/C=C/c2cccc3cccnc23)cc1
pEC50: 7.20 | pIC50: < 3.70

Nc1[nH]nc2nc3n(c(=O)c12)CCCCC3
pEC50: < 4.34 | pIC50: < 4.34

CCOC(=O)NC(O)C(Cl)(Cl)Cl (stereo not given)
pEC50: < 3.70 | pIC50: < 3.70

CCN(Cc1cccc(S(=O)(=O)[O-])c1)c1ccc(C(=C2C=CC(=[N+](CC)Cc3cccc(S(=O)(=O)O)c3)C=C2)c2ccccc2S(=O)(=O)O)cc1
outcome: inactive

COC(=O)C(Cc1ccc(N(C)C)cc1)(NC(=O)c1ccccc1)P(=O)(OC)OC (stereo not given)
pEC50: < 3.38 | pIC50: 3.40

[Au+].c1c[n-]cn1.c1ccc([PH+](c2ccccc2)c2ccccc2)cc1
pEC50: < 4.86 | pIC50: 5.20

CN(C)c1nc(=NCc2cccs2)ss1
pEC50: < 3.70 | pIC50: 4.76

O=C(Nc1cccc(Cl)c1)Nc1ccc[nH]c1=O
pEC50: < 3.31 | pIC50: 4.60

CCOc1ccc(/C=C2\NC(=S)N(/C=C3\C(=O)Oc4ccccc4C3=O)C2=O)cc1
outcome: inactive

COC(=O)N/N=C(/CCN1CCCC1)CC(c1ccccc1)c1c(O)c2ccccc2oc1=O (stereo not given)
pEC50: < 4.05 | pIC50: 4.08

CN1CCN(/C(N)=C(\C#N)C(=O)Nc2ccc(Cl)cc2)CC1
pEC50: < 3.70 | pIC50: < 4.00

O=C1c2cc3c(cc2CC12Cc1ccc4c(c1C2=O)CCCC4)CCCC3 (stereo not given)
pEC50: < 3.70 | pIC50: < 3.70

CCCCc1c2c(nc3c1CCCC3O)/C(=C/c1ccccc1)CCC2 (stereo not given)
pEC50: < 5.20 | pIC50: < 5.20

CC12CCC[C@@](C)(C(=O)OC3OC(CO)C(O)C(O)C3O)[C@H]1CCC13CC4CC(OC4(CO)[C@H]1O)[C@@H]23 (stereo not given in full)
outcome: inactive

CS(=O)(=O)CS(C)(=O)=O
pEC50: < 3.70 | pIC50: < 3.70

Cc1cc(Cl)nc2nc(Cl)c(N)cc12
outcome: inactive

CC(=O)Nc1ccc(-c2nnc(SCC(=O)Nc3ccc(Cl)cc3)o2)cc1
pEC50: < 4.05 | pIC50: 5.30

Cc1ccc(C2(C(=O)O)CCCN2)cc1 (stereo not given)
pEC50: < 3.70 | pIC50: < 3.70

Cc1ccc(S(=O)(=O)SCC(=O)c2ccc(Br)cc2)cc1
pEC50: 5.16 | pIC50: 4.03
